Reference: PubChem BioAssay AID1963873 (Molecular Pharmacology Branch, DTP, NCI, 2024)

Tested on: 276233-004-R-J1-PDC KRAS spheroids with HUVEC/MSC, viability
Test: Anticancer human tumor 276233-004-R-J1-PDC patient-derived colon adenocarcinoma cell line growth inhibition [KRAS2]
Details: for IC50: curve of first compound; for viability, T/C: stronger effect = lower value
How it was run: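 KRAS-mutant tumor cells were grown as spheroids with HUVEC endothelial cells and human MSCs as stroma. Targeted agents were tested alone and with KRAS pathway inhibitors. Doses started at or near clinical Cmax, or 10 microM, descending half-log.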

[1] = second compound 0.1 µM, first compound 0.01 µM
[2] = second compound 0.1 µM, first compound 0.0316 µM
[3] = second compound 0.1 µM, first compound 0.1 µM
[4] = second compound 0.1 µM, first compound 0.316 µM
[5] = second compound 0.1 µM, first compound 1 µM
[6] = second compound 0.1 µM, first compound 3.16 µM
[7] = second compound 0.316 µM, first compound 0.01 µM
[8] = second compound 0.316 µM, first compound 0.0316 µM
[9] = second compound 0.316 µM, first compound 0.1 µM
[10] = second compound 0.316 µM, first compound 0.316 µM
[11] = second compound 0.316 µM, first compound 1 µM
[12] = second compound 0.316 µM, first compound 3.16 µM
[13] = second compound 1 µM, first compound 0.01 µM
[14] = second compound 1 µM, first compound 0.0316 µM
[15] = second compound 1 µM, first compound 0.1 µM
[16] = second compound 1 µM, first compound 0.316 µM
[17] = second compound 1 µM, first compound 1 µM
[18] = second compound 1 µM, first compound 3.16 µM
[19] = second compound 3.16 µM, first compound 0.01 µM
[20] = second compound 3.16 µM, first compound 0.0316 µM
[21] = second compound 3.16 µM, first compound 0.1 µM
[22] = second compound 3.16 µM, first compound 0.316 µM
[23] = second compound 3.16 µM, first compound 1 µM
[24] = second compound 3.16 µM, first compound 3.16 µM
[25] = second compound 10 µM, first compound 0.01 µM
[26] = second compound 10 µM, first compound 0.0316 µM
[27] = second compound 10 µM, first compound 0.1 µM
[28] = second compound 10 µM, first compound 0.316 µM
[29] = second compound 10 µM, first compound 1 µM
[30] = second compound 10 µM, first compound 3.16 µM
[31] = second compound 0.1 µM, first compound 10 µM
[32] = second compound 0.316 µM, first compound 10 µM
[33] = second compound 1 µM, first compound 10 µM
[34] = second compound 3.16 µM, first compound 10 µM
[35] = second compound 10 µM, first compound 10 µM
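Also: cells exposed to agents for seven days before viability read.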
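For viability, T/C in this document: 100% = DMSO vehicle control wells and lower values mean fewer viable cells.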

Row | SMILES | IC50 (second compound 0.1 µM) [µM] | IC50 (second compound 0.316 µM) [µM] | IC50 (second compound 1 µM) [µM] | IC50 (second compound 3.16 µM) [µM] | IC50 (second compound 10 µM) [µM] | viability, T/C [2] [%] | viability, T/C [3] [%] | viability, T/C [4] [%] | viability, T/C [5] [%] | viability, T/C [6] [%] | viability, T/C [8] [%] | viability, T/C [9] [%] | viability, T/C [10] [%] | viability, T/C [11] [%] | viability, T/C [12] [%] | viability, T/C [14] [%] | viability, T/C [15] [%] | viability, T/C [16] [%] | viability, T/C [17] [%] | viability, T/C [18] [%] | other results
1 | CC1COCCN1c1cc(-c2ccnn2C)c2ccnc(-c3ccn[nH]3)c2n1 (stereo not given) + CNCc1ccccc1-c1csc(C(C)Nc2nc(C)nc3cc(OC)c(OC)cc23)c1 | > 3.16 | > 3.16 | > 3.16 | < 0.01 | < 0.01 | 95.5 | 90.2 | 82.8 | 70 | 57 | 94.1 | 87.7 | 85.3 | 77.9 | 59.1 | 86.7 | 69.9 | 63.1 | 57.7 | 50.9 | viability, T/C [1]: 93.1%; viability, T/C [7]: 93.2%; viability, T/C [13]: 82%; viability, T/C [19]: 0.49%; viability, T/C [20]: 1.11%; viability, T/C [21]: 1.38%; viability, T/C [22]: 1.8%; viability, T/C [23]: 2.11%; viability, T/C [24]: 1.03%; viability, T/C [25]: 0.67%; viability, T/C [26]: 3.53%; viability, T/C [27]: 0.82%; viability, T/C [28]: 0.17%; viability, T/C [29]: 0.15%; viability, T/C [30]: 2.79%
2 | CC1OCC2(CCN(c3cnc(Sc4ccnc(N)c4Cl)c(N)n3)CC2)C1N (stereo not given) + CNCc1ccccc1-c1csc(C(C)Nc2nc(C)nc3cc(OC)c(OC)cc23)c1 | > 10 | > 10 | 0.392 | < 0.0316 | < 0.0316 | 73.8 | 101 | 66.1 | 82 | 73.3 | 92.8 | 90.2 | 68.6 | 60.9 | 66 | 88.9 | 84.1 | 50.8 | 50 | 50.3 | viability, T/C [31]: 59%; viability, T/C [32]: 46.5%; viability, T/C [33]: 34.5%; viability, T/C [20]: 0.87%; viability, T/C [21]: 0.85%; viability, T/C [22]: 1.57%; viability, T/C [23]: 2.11%; viability, T/C [24]: 0.56%; viability, T/C [34]: 3.18%; viability, T/C [26]: 1.45%; viability, T/C [27]: 3.57%; viability, T/C [28]: 0.22%; viability, T/C [29]: 0.25%; viability, T/C [30]: 0.32%; viability, T/C [35]: 5.87%
3 | CCNC(=O)CC1N=C(c2ccc(Cl)cc2)c2cc(OC)ccc2-n2c(C)nnc21 (stereo not given) + CNCc1ccccc1-c1csc(C(C)Nc2nc(C)nc3cc(OC)c(OC)cc23)c1 | > 10 | > 10 | > 10 | < 0.0316 | < 0.0316 | 86.7 | 84.3 | 68.2 | 68.3 | 72.8 | 88.2 | 82.8 | 85.5 | 73.5 | 72.7 | 87.3 | 71.2 | 67.2 | 61 | 56.8 | viability, T/C [31]: 54.4%; viability, T/C [32]: 67.1%; viability, T/C [33]: 66.3%; viability, T/C [20]: 0.46%; viability, T/C [21]: 0.86%; viability, T/C [22]: 2.72%; viability, T/C [23]: 0.85%; viability, T/C [24]: 2.19%; viability, T/C [34]: 1.93%; viability, T/C [26]: 0.24%; viability, T/C [27]: 1.77%; viability, T/C [28]: 0.22%; viability, T/C [29]: 0.26%; viability, T/C [30]: 0.43%; viability, T/C [35]: 0.23%
4 | Cn1nccc1Nc1nccc(-c2cc3c(s2)C(C)(C)N(CCN2CCOCC2)C3=O)n1 + CNCc1ccccc1-c1csc(C(C)Nc2nc(C)nc3cc(OC)c(OC)cc23)c1 | 7.27 | > 10 | 1.06 | < 0.0316 | < 0.0316 | 107 | 91.7 | 80.2 | 81.6 | 49.3 | 115 | 89.9 | 94.2 | 79.3 | 50.1 | 86 | 83.1 | 68 | 52.4 | 27.3 | viability, T/C [31]: 49.4%; viability, T/C [32]: 60.2%; viability, T/C [33]: 6.69%; viability, T/C [20]: 3.02%; viability, T/C [21]: 2.17%; viability, T/C [22]: 2.97%; viability, T/C [23]: 3.66%; viability, T/C [24]: 1.05%; viability, T/C [34]: 0.59%; viability, T/C [26]: 2.67%; viability, T/C [27]: 2.95%; viability, T/C [28]: 1.94%; viability, T/C [29]: 1.75%; viability, T/C [30]: 1.4%; viability, T/C [35]: 0.24%
5 | CC(=O)OC12COC1CC(O)C1(C)C(=O)C(O)C3=C(C)C(OC(=O)C(O)C(NC(=O)OC(C)(C)C)c4ccccc4)CC(O)(C(OC(=O)c4ccccc4)C21)C3(C)C (stereo not given) + COc1cc2nc(C)nc(NC(C)c3cc(N)cc(C(F)(F)F)c3)c2cc1OC1CCOC1 | > 3.16 | > 3.16 | > 3.16 | > 3.16 | > 3.16 | 75.9 | 83.1 | 91.8 | 86.1 | 94 | 80.7 | 72 | 65.4 | 78.3 | 71.7 | 73.3 | 82 | 76.4 | 92.2 | 78.5 | viability, T/C [1]: 86.8%; viability, T/C [7]: 75.1%; viability, T/C [13]: 73.4%; viability, T/C [19]: 78.3%; viability, T/C [20]: 70.5%; viability, T/C [21]: 58.9%; viability, T/C [22]: 61.2%; viability, T/C [23]: 69.3%; viability, T/C [24]: 66.3%; viability, T/C [25]: 64.3%; viability, T/C [26]: 61.2%; viability, T/C [27]: 73.3%; viability, T/C [28]: 72.7%; viability, T/C [29]: 78.8%; viability, T/C [30]: 77.8%
